Reference: patent US10844049B2, “GLP-1R agonists and uses thereof” (QILU REGOR THERAPEUTICS INC., priority 2018, dated 2020)

Molecular target: GLP1R (Homo sapiens, UniProt P43220)
Assay: GLP1R cAMP HTRF assay, HEK293/GLP-1R/CRE/Luc (HEK293T cells)
Type: cell-based
Details: read-out: EC50
Procedure: GLP-1R-mediated agonist activity was determined with a cell-based functional assay utilizing an HTRF (Homogeneous Time-Resolved Fluorescence) cAMP detection kit (cAMP Dynamic 2 Assay Kit; CisBio cat #62AM4PEC) that measures cAMP levels in the cell. The method is a competitive immunoassay between native cAMP produced by the cells and exogenous cAMP labeled with the dye d2. The tracer binding is visualized by a mAb anti-cAMP labeled with Cryptate. The specific signal (i.e., energy transfer) is inversely proportional to the concentration of cAMP in either standard or experimental sample.
A cell line stably expressing the receptor was isolated.
Varying concentrations of each compound to be tested (in DMSO) were diluted in DMSO to obtain 200× compound working solution first and then 50 nl compounds were added to a white 384-well assay plate (Greiner 784075) with ECHO. The final DMSO concentration was 0.5%. The compound concentration range may be adjusted at any time.
Cells were removed from cryopreservation, re-suspended in 5 mL of Dulbecco's Phosphate Buffered Saline (DPBS-Sigma Cat # D8537) and centrifuged at 900 g for 5 min at 22° C. The cell pellet was then re-suspended in 1 mL of assay buffer [DPBS with 500 μM IBMX (Sigma #15879) and 0.1% BSA (Sigma # A1933). IBMX and BSA were freshly added on the day of assay]. A 10 μL sample of the cell suspension was counted on an Invitrogen Countess II to determine cell viability and cell count per mL. The remaining cell suspension was then adjusted with assay buffer to deliver 1000 viable cells per well using a Matrix Combi Multidrop reagent dispenser. 10 μL cell suspensions were added to each well of the assay plate which already contains compound. The plate was sealed and incubated at 37° C. with 5% CO2 for 30 minutes.
Following the 30 minute incubation, 5 μL of labeled d2 cAMP and 5 μL of anti-cAMP antibody (both diluted 1:20 in cell lysis buffer; as described in the manufacturer's assay protocol) were added to each well of the assay plate. The plates w ere then incubated at room temperature and after 60 minutes, changes in the HTRF signal were read with an Envision multi-label plate reader using excitation of 330 nm and emissions of 615 and 665 nm. Raw data were converted to nM cAMP by interpolation from a cAMP standard curve (as described in the manufacturer's assay protocol) and the percent effect was determined relative to a saturating concentration of the full agonist GLP-17-37 (10 nM) included on each plate. EC50 determinations were made from agonist dose-response curves analyzed with a curve fitting program using a 4-parameter logistic dose response equation.
3) Anti-cAMP antibody-cryptate working solution preparation • c) The lyophilisate was reconstituted with appropriate amount of distilled water according to manufacturer's instruction to make working stock which can be aliquoted and frozen (−20° C.). • d) The working stock solution was diluted 1:20 in the conjugate and lysis buffer before use. Procedures Procedures for Cell Suspension Preparation • 1. Frozen cells were thawed very briefly in a 37° C. water bath under sterile conditions until just before ice completely melt (for about 1 minute) with a continuous agitation. Caution was taken because a longer incubation could result in cell death. • 2. DMSO was removed from the media by carefully transferring thawed cells to a sterile 15/50 mL tube, filling a tube with 10-50 mL of complete media pre-warmed to 37° C., and allowing the cells to sit 5 min before centrifuging at 900 rpm for 5 minutes for cell collection. • 3. The cells were resuspended with assay buffer. • 4. For stable GLP1-R assay, the optimized cell density is 1000 cells/well. Caution was taken because cell density optimization was crucial and needed to be optimized in different laboratories. The level of cAMP produced by the cells must fall within the linear range of the standard curve.

GLP1R, sequence (P43220 24-463): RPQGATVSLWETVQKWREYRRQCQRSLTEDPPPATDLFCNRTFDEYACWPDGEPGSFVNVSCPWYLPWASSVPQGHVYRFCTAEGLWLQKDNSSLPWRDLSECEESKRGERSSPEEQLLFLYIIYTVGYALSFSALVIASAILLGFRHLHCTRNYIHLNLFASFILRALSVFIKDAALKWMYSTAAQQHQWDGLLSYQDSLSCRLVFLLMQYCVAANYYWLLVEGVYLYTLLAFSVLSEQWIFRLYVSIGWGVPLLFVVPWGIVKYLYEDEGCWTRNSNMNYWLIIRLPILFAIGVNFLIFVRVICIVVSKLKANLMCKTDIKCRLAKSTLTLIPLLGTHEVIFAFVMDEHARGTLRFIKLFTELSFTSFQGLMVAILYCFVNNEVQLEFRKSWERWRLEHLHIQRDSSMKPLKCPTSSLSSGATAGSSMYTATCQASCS

`O=C(O)c1ccc2nc(CN3CC=C(c4cccc(OCc5ccc(OC(F)(F)F)cc5)n4)CC3)n(C[C@@H]3CCO3)c2c1` [Compound 120, (S)-1-(oxetan-2-ylmethyl)-2-((6-((4-(trifluoromethoxy)benzyl)oxy)-3′,6′-dihydro-[2,4′-bipyridin]-1′(2′H)-yl)methyl)-1H-benzo[d]imidazole-6-carboxylic acid] and `Cc1ccc(COc2cccc(C3=CCN(Cc4nc5ccc(C(=O)O)cc5n4C[C@@H]4CCO4)CC3)n2)cc1` [Compound 146, (S)-2-((6-((4-methylbenzyl)oxy)-3′,6′-dihydro-[2,4′-bipyridin]-1′(2′H)-yl)methyl)-1-(oxetan-2-ylmethyl)-1H-benzo[d]imidazole-6-carboxylic acid] cannot be ordered by EC50: no more than 0.015 µM for the first, no more than 0.015 µM for the second.

`O=C(O)c1cc2c(cn1)nc(CN1CC=C(c3cccc(OCc4ccc(Cl)cc4F)n3)CC1)n2C[C@@H]1CCO1` [Compound 170, (S)-2-((G-((4-chloro-2-fluorobenzyl)oxy)-3′,6′-dihydro-[2H′-bipyridin]-1 (2′H)-yl)methyl)-1-(oxetan-2-ylmethyl)-1H-imidazo[4,5-c]pyridine-6-carboxylic acid] and `O=C(O)c1ccc2nc(CN3CC=C(c4cccc(OCc5ccc(Cl)cc5Cl)n4)CC3)n(C[C@@H]3CCO3)c2c1` [Compound 114, (S)-2-((6-((2,4-dichlorobenzyl)oxy)-3′,6′-dihydro-[2,4′-bipyridin]-1′(2′H)-yl)methyl)-1-(oxetan-2-ylmethyl)-1H-benzo[d]imidazole-6-carboxylic add] cannot be ordered by EC50: no more than 0.015 µM for the first, no more than 0.015 µM for the second.

`O=C(O)c1ccc2nc(CN3CC=C(c4cccc(NC5CCCc6cc(Cl)ccc65)n4)CC3)n(C[C@@H]3CCO3)c2c1` (stereo partly drawn) [Compound 104, 2-((6-((6-chloro-1,2,3,4-tetrahydronaphthalen-1-yl)amino)-36′-dihydro-[2,4′-bipyridin]-1′(2′H)-yl)methyl)-1-(((S)-oxetan-2-yl)methyl)-1H-benzo[d]imidazole-6-carboxylic add] and `O=C(O)c1ccc2nc(CN3CC=C(c4cccc(OC5CCOc6cc(Cl)ccc65)n4)CC3)n(C[C@@H]3CCO3)c2c1` (stereo partly drawn) [Compound 69, 2-((6-((7-chlorochroman-4-yl)oxy)-5′,6′-dihydro-[2,4′-bipyridin]-1′(2′H)-yl)methyl)-1-((S)-oxetan-2-ylmethyl)-1H-benzo[d]imidazole-6-carboxylic add] cannot be ordered by EC50: no more than 1 µM for the first, no more than 1 µM for the second.

`N#Cc1ccc(COc2nc(C3=CCN(Cc4nc5ccc(C(=O)O)cc5n4C[C@@H]4CCO4)CC3)c(F)cc2F)c(F)c1` [Compound 212, (S)-2-((6-((4-cyano-2-fluorobenzyl)oxy)-3,5-difluoro-3′,6′-dihydro-[2,4′-bipyridin]-1′(2′H)-yl)methyl)-1-(oxetan-2-ylmethyl)-1H-benzo[d]imidazole-6-carboxylic add] and `O=C(O)c1ccc2nc(CN3CC=C(c4cc(OCc5ccc(Cl)cc5F)c(F)cc4F)CC3)n(C[C@@H]3CCO3)c2c1` [Compound 132, (S)-2-((4-(5-((4-chloro-2-fluorobenzyl)oxy)-2H-difluorophenyl)-3,6-dihydropyridin-1(2H)-yl)methyl)-1-(oxetan-2-ylmethyl)-1H-benzo[d]imidazole-6-carboxylic acid] cannot be ordered by EC50: no more than 0.015 µM for the first, no more than 1 µM for the second.

`O=C(O)c1ccc2nc(CN3CCN(c4ccc(=O)n(Cc5ccc(Cl)cc5F)n4)CC3)n(C[C@@H]3CCO3)c2c1` [Compound 7, (S)-2-((4-(1-(4-chloro-2-fluorobenzyl)-6-oxo-1,6-dihydropyridazin-3-yl)piperazin-1-yl)methyl)-1-(oxetan-2-ylmethyl)-1 h-benzo[d]imidazole-6-carboxylic acid] and `O=C(O)c1ccc2nc(CN3CCN(c4ccc5ccn(Cc6ccc(Cl)cc6F)c5c4)CC3)n(C[C@@H]3CCO3)c2c1` [Compound 14, (S)-2-((4-(1-(4-chloro-2-fluorobenzyl)-th-indol-6-yl)piperazin-1-yl)methyl)-1-(oxetan-2-ylmethyl)-1 h-benzo[d]imidazole-6-carboxylic acid] cannot be ordered by EC50: greater than 1 µM for the first, greater than 1 µM for the second.

`O=C(O)c1ccc2nc(CN3CC=C(c4cccc(OCc5cc(F)cc(F)c5)n4)CC3)n(C[C@@H]3CCO3)c2c1` [Compound 142, (S)-2-((6-((3,5-difluorobenzyl)oxy)-3′,6′-dihydro-[2,4′-bipyridin]-1′(2′H)-yl)methyl)-1-(oxetan-2-ylmethyl)-1H-benzo[d]imidazole-6-carboxylic acid] and `O=C(O)c1ccc2nc(CN3CC=C(c4cccc(OCc5cccc(C(F)(F)F)c5)n4)CC3)n(C[C@@H]3CCO3)c2c1` [Compound 134, (S)-1-(oxetan-2-ylmethyl)-2-((6-((3-(trifluoromethyl)benzyl)oxy)-3′,6′-dihydro-[2,4′-bipyridin]-1′(2H)-yl)methyl)-1H-benzo[d]imidazole-6-carboxylic acid] cannot be ordered by EC50: no more than 0.15 µM for the first, no more than 0.015 µM for the second.

`O=C(O)c1ccc2nc(CN3CC=C(c4cccc(OCc5ccc(Cl)cn5)n4)CC3)n(C[C@@H]3CCO3)c2c1` [Compound 116, (S)-2-((6-((5-chloropyridin-2-yl)methoxy)-3′,6′-dihydro-[2H′-bipyridin]-1′(2′H)-yl)methyl)-1-(oxetan-2-ylmethyl)-1H-benzo[d]imidazole-6-carboxylic add] and `CC#Cc1ccc(COc2cccc(C3=CCN(Cc4nc5ccc(C(=O)O)cc5n4C[C@@H]4CCO4)CC3)n2)c(F)c1` [Compound 107, (S)-2-((6-((2-fluoro-4-(prop-1-yn-1-yl)benzyl)oxy)-3′,6′-dihydro-[2,4′-pyridin]-1′(2′H)-yl)methyl)-1-(oxetan-2-ylmethyl)-1H-benzo[d]imidazole-6-carboxylic acid] cannot be ordered by EC50: no more than 0.015 µM for the first, no more than 0.015 µM for the second.

`O=C(O)c1ccc2nc(CN3CC=C(c4nccc(OCc5ccc(F)cc5F)n4)CC3)n(C[C@@H]3CCO3)c2c1` [Compound 214, (S)-2-((4-(4-((2,4-difluorobenzyl)oxy)pyrimidin-2-yl)-3,6-dihydropyridin-1(2H)-yl)methyl)-1-(oxetan-2-ylmethyl)-1H-benzo[d]imidazole-6-carboxylic add] and `O=C(O)c1ccc2nc(CN3CC=C(c4ccc(F)c(NCc5ccc(Cl)cc5F)c4)CC3)n(C[C@@H]3CCO3)c2c1` [Compound 129, (S)-2-((4-(3-((4-chloro-2-fluorobenzyl)amino)-4-fluorophenyl)-3,6-dihydropyridin-1(2H)-yl)methyl)-1-(oxetan-2-ylmethyl)-1H-benzo[d]imidazole-6-carboxylic acid] cannot be ordered by EC50: no more than 0.15 µM for the first, no more than 0.015 µM for the second.

`O=C(O)c1ccc2nc(CN3CC=C(c4ccc5c(n4)N(Cc4ccc(Cl)cc4F)CCCO5)CC3)n(C[C@@H]3CCO3)c2c1` [Compound 59, (S)-2-((4-(5-(4-chloro-2-fluorobenzyl)-2,3,4,5-tetrahydropyrido[3,2-b][1,4]oxazepin-7-yl)-3,6-dihydropyridin-1(2H)-yl)methyl)-1-(oxetan-2-ylmethyl)-1H-benzo[d]imidazole-6-carboxylic add] and `O=C(O)c1ccc2nc(CN3CCN(c4cc5ccccc5c(OCc5ccc(Cl)cc5F)n4)CC3)n(C[C@@H]3CCO3)c2c1` [Compound 36, (S)-2-((4-(1-((4-chloro-2-fluorobenzyl)oxy)isoquinolin-3-yl)piperazin-1-yl)methyl)-1-(oxetan-2-ylmethyl)-1 h-benzo[d]imidazole-6-carboxylic acid] cannot be ordered by EC50: greater than 1 µM for the first, no more than 1 µM for the second.

With `O=C(O)c1ccc2nc(CN3CCN(c4nc(OCc5ccc(Cl)cc5F)ncc4F)CC3)n(C[C@@H]3CCO3)c2c1` [Compound 179, (S)-2-((4-(2-(4-chloro-2-fluorobenzyloxy)-5-fluoropyrimidin-4-yl)piperazin-1-yl)methyl)-1-(oxetan-2-ylmethyl)-1H-benzo[d]imidazole-6-arboxylic acid] the EC50 was no more than 0.015 µM.
